Reference: ChEMBL document CHEMBL1201862, “PubChem BioAssay data set” (2004)
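Compound exposure: 48 hours, 5 concentrations, 96-well plates. Abbreviation: GI50, concentration required for 50% inhibition of growth.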 The source made the active and inactive calls. Rule as the data show it: active = GI50 up to about 1.1 µM and inactive = higher.

Assays:
Assay in all cases: growth of human tumour cells (NCI), 48 h
[1] = test system: T47D
[2] = test system: DLD-1
[3] = test system: DMS-114
[4] = test system: HOP-18
[5] = test system: KM-20L2
[6] = test system: M19-MEL
[7] = test system: XF498
[8] = test system: RXF 631
[9] = test system: SNB-78

Question: For `COC(=O)/C(C#N)=C(\N)c1c(C)c2ccccc2oc1=N`, which GI50 [1] is on record?
Answer: Its GI50 is > 100 µM (inactive).

Question: With `COc1ccc2nc3cc([N+](=O)[O-])ccc3c(Nc3ccc(S(=O)(=O)Nc4ncccn4)cc3)c2c1` as the molecule, how does the GI50 [1] read?
Answer: Its GI50 is > 100 µM (inactive).

Question: What does the source list for `CC/C=C\C/C=C\C/C=C\CCCCCCCC(=O)OCC`?
Answer: GI50 [2]: > 100 µM (inactive); GI50 [3]: > 100 µM (inactive); GI50 [4]: > 100 µM (inactive); GI50 [5]: > 100 µM (inactive); GI50 [6]: > 100 µM (inactive); GI50 [7]: 30.9 µM (inactive)

Question: What does the source list for `O=C1c2ccccc2-c2cccc3ccc(Cc4ccc5ccccc5c4)c1c23`?
Answer: GI50 [2]: > 100 µM (inactive); GI50 [5]: > 100 µM (inactive); GI50 [6]: > 100 µM (inactive); GI50 [8]: > 100 µM (inactive); GI50 [9]: > 100 µM (inactive); GI50 [7]: 30.3 µM (inactive)

Question: Which GI50 [1] does the source give for `CC(Oc1ccccc1Cl)C(=O)NN1C(=O)CSC1c1ccccc1` (stereo not given) here?
Answer: The GI50 was 63.4 µM (inactive).

Question: What does the source list for `N/N=c1\c2ccccc2c2ccc3c4ccccc4/c(=N\N)c3c12`?
Answer: GI50 [2]: > 100 µM (inactive); GI50 [3]: > 100 µM (inactive); GI50 [4]: > 100 µM (inactive); GI50 [5]: > 100 µM (inactive); GI50 [6]: > 100 µM (inactive); GI50 [9]: > 100 µM (inactive)

Question: For `CC(C)(C)[Si](C)(C)O[C@@H](C(=O)OC1C=CCCC1)[C@@H](NC(=O)c1ccccc1)c1ccccc1` (stereo not given in full), which GI50 [1] is on record?
Answer: Its GI50 is 20 µM (inactive).

Question: With `Cn1c2ccccc2c2c3c(c4c5ccccc5n(C)c4c21)C(=O)c1ccccc1C3=O` as the molecule, how does the GI50 [1] read?
Answer: The GI50 was 13.2 µM (inactive).

Question: With `CC(=O)Nc1ccc(C(=O)N2N=C(C)/C(=C/c3cccc(O)c3)C2=O)cc1` as the molecule, how does the GI50 [2] read?
Answer: Its GI50 is > 100 µM (inactive).

Question: What about the GI50 [3] of the same molecule?
Answer: The GI50 was > 100 µM (inactive).

Question: What about the GI50 [6] of the same molecule?
Answer: Its GI50 is > 100 µM (inactive).

Question: And the GI50 [7]?
Answer: Its GI50 is > 100 µM (inactive).

Question: For `CN1C(=O)C2(C)SC1(c1ccccc1)C1C(=O)N(c3ccccc3)C(=O)C12` (stereo not given), which GI50 [1] is on record?
Answer: Its GI50 is 52.2 µM (inactive).

Question: For `Cc1ccc(NC(=O)c2cc3ccccc3c(/N=N/c3cc(S(=O)(=O)O)ccc3O)c2O)c(C)c1`, which GI50 [1] is on record?
Answer: The GI50 was 24.7 µM (inactive).

Question: With `Cc1ccc(-c2cc(=O)c(=O)[nH][nH]2)cc1` as the molecule, how does the GI50 [1] read?
Answer: Its GI50 is > 100 µM (inactive).

Question: For `O=C(CC(O)c1cccnc1)CC(O)c1cccnc1` (stereo not given), which GI50 [1] is on record?
Answer: The GI50 was 26.5 µM (inactive).

Question: With `CC(C)/C(Cl)=N\OC(=O)Nc1ccc(C#N)cc1` as the molecule, how does the GI50 [1] read?
Answer: Its GI50 is 5.77 µM (inactive).

Question: How did the GI50 [1] turn out when `CC1(CO)OC(n2cnc3cncnc32)CC1O` (stereo not given) was run?
Answer: The GI50 was > 100 µM (inactive).

Question: Which GI50 [1] does the source give for `O=c1oc2ccc([N+](=O)[O-])cc2cc1-c1csc(-c2ccccc2)n1` here?
Answer: The GI50 was > 100 µM (inactive).

Question: For `COc1ccc(NC(=O)C(=O)Cc2ccc([N+](=O)[O-])c([N+](=O)[O-])c2CC(=O)C(=O)Nc2ccc(OC)cc2OC)c(OC)c1`, which GI50 [2] is on record?
Answer: The GI50 was > 100 µM (inactive).

Question: And the GI50 [3]?
Answer: Its GI50 is > 100 µM (inactive).

Question: What about the GI50 [4] of the same molecule?
Answer: The GI50 was > 100 µM (inactive).

Question: And the GI50 [5]?
Answer: The GI50 was > 100 µM (inactive).

Question: And the GI50 [6]?
Answer: Its GI50 is 95.9 µM (inactive).

Question: And the GI50 [8]?
Answer: Its GI50 is > 100 µM (inactive).

Question: What about the GI50 [9] of the same molecule?
Answer: The GI50 was > 100 µM (inactive).

Question: Which GI50 [2] does the source give for `CC(C)COC(=O)N1N=NC2C3CC(=O)C(O3)C21` (stereo not given) here?
Answer: Its GI50 is > 100 µM (inactive).

Question: What about the GI50 [3] of the same molecule?
Answer: Its GI50 is > 100 µM (inactive).

Question: And the GI50 [4]?
Answer: The GI50 was > 100 µM (inactive).

Question: What about the GI50 [5] of the same molecule?
Answer: The GI50 was > 100 µM (inactive).

Question: What about the GI50 [6] of the same molecule?
Answer: The GI50 was > 100 µM (inactive).

Question: And the GI50 [8]?
Answer: Its GI50 is > 100 µM (inactive).

Question: What about the GI50 [9] of the same molecule?
Answer: The GI50 was > 100 µM (inactive).

Question: For `CN1C2CCC1CC(CCNC(c1ccccc1)c1ccccc1)C2` (stereo not given), which GI50 [1] is on record?
Answer: Its GI50 is 25.5 µM (inactive).

Question: How did the GI50 [1] turn out when `COc1cc2cc(C(=O)N3C[C@@H](CCl)c4c3cc(N)c3ccccc43)[nH]c2c(OC)c1OC` was run?
Answer: The GI50 was 0.00104 µM (active).

Question: Which GI50 [1] does the source give for `COc1cc2c(cc1OC)C1=C(C=O)c3ccc(OC)c(OC)c3C(O)N1CC2` (stereo not given) here?
Answer: The GI50 was 21.1 µM (inactive).

Question: For `CC(C)(C)OC(=O)NCCC(=O)NC1(c2cc3ccccc3s2)CCCCC1`, which GI50 [1] is on record?
Answer: Its GI50 is 8.05 µM (inactive).

Question: Which GI50 [1] does the source give for `C=CCOc1ccc(C2c3c(n[nH]c3O)CC(C)(O)C2C(=O)OC)cc1OC` (stereo not given) here?
Answer: The GI50 was > 100 µM (inactive).

Question: What does the source list for `CCc1cccc(CC)c1NC1=CC(=O)C(=O)c2ccccc21`?
Answer: GI50 [2]: 15.6 µM (inactive); GI50 [3]: 12.4 µM (inactive); GI50 [4]: 21.2 µM (inactive); GI50 [5]: 19.8 µM (inactive); GI50 [6]: 4.97 µM (inactive); GI50 [8]: 13.8 µM (inactive); GI50 [9]: 26.3 µM (inactive)

Question: How did the GI50 [1] turn out when `Clc1ccc(Cc2nc3cc(Cl)c(Cl)cc3n2CC2CCCN3CCCCC23)cc1Cl` (stereo not given) was run?
Answer: Its GI50 is 7.29 µM (inactive).

Question: `CN1CCC2(CC1)SC[C@H]1C(=O)N(c3ccc(Cl)cc3)C(=O)N12` was tested. Which GI50 [1] did it give?
Answer: Its GI50 is > 100 µM (inactive).

Question: Which GI50 [2] does the source give for `O/N=C/c1ncccc1C1OCCO1` here?
Answer: The GI50 was > 100 µM (inactive).

Question: What about the GI50 [3] of the same molecule?
Answer: The GI50 was > 100 µM (inactive).

Question: And the GI50 [4]?
Answer: Its GI50 is > 100 µM (inactive).

Question: What about the GI50 [5] of the same molecule?
Answer: The GI50 was > 100 µM (inactive).

Question: And the GI50 [6]?
Answer: Its GI50 is > 100 µM (inactive).

Question: What about the GI50 [9] of the same molecule?
Answer: Its GI50 is > 100 µM (inactive).

Question: What about the GI50 [7] of the same molecule?
Answer: Its GI50 is > 100 µM (inactive).

Question: Which GI50 [1] does the source give for `Cc1ccc(/C=C/C(=O)c2cc(CN(C)C)c(O)c(CN(C)C)c2)cc1` here?
Answer: Its GI50 is 18 µM (inactive).

Question: `Cc1ccc(N2C(=O)N(c3ccc(C)cc3)C3(SC=NN3C)C2=O)cc1` (stereo not given) was tested. Which GI50 [2] did it give?
Answer: The GI50 was 67.6 µM (inactive).

Question: And the GI50 [3]?
Answer: The GI50 was 31.2 µM (inactive).

Question: What about the GI50 [4] of the same molecule?
Answer: Its GI50 is > 100 µM (inactive).

Question: What about the GI50 [5] of the same molecule?
Answer: The GI50 was 44 µM (inactive).

Question: And the GI50 [6]?
Answer: Its GI50 is 72.6 µM (inactive).

Question: What about the GI50 [9] of the same molecule?
Answer: The GI50 was > 100 µM (inactive).

Question: `N=C(N)N/N=C/c1c(-c2ccc(Cl)c([N+](=O)[O-])c2)nc2sc(Cl)cn12` was tested. Which GI50 [1] did it give?
Answer: Its GI50 is 1.23 µM (inactive).

Question: For `Cc1ccc(/C=N/n2c(Cc3ccccc3)n[nH]c2=O)cc1`, which GI50 [1] is on record?
Answer: The GI50 was > 100 µM (inactive).

Question: With `O=C1NC(=S)NC(=O)C1=Cc1ccc(-c2ccccc2)cc1` as the molecule, how does the GI50 [1] read?
Answer: The GI50 was > 100 µM (inactive).

Question: With `C=C1C[C@@H]2CC[C@@]34CC5O[C@H]6C(O[C@H]7CC[C@H](CC(=O)O[C@@H]8[C@@H](C)[C@@H]9O[C@@H]%10C[C@]%11(C[C@@H]%12O[C@]%13(C[C@H](C)[C@@H]%14O[C@@H]%15CC(C(COC(C)=O)OC(C)=O)O[C@@H]%15C[C@@H]%14O%13)C[C@H](C)[C@@H]%12O%11)O[C@@H]%10C[C@@H]9O[C@H]8CC8O[C@@H](CC[C@@H]1O2)C[C@@H](C)C8(O)CO)O[C@@H]7[C@@H]6O3)[C@H]5O4` (stereo not given in full) as the molecule, how does the GI50 [1] read?
Answer: The GI50 was > 0.451 µM (active).
